Results: article PMC5053573, “Structure-Based Design of Tetrahydroisoquinoline-7-carboxamides as Selective Discoidin Domain Receptor 1 (DDR1) Inhibitors” (Journal of Medicinal Chemistry, 2016)

Key:
Assay in all cases: biochemical
Conditions in all cases: read-out: %Ctrl @ 1000nM
[1] = biological target: TGFBR2 (Homo sapiens, UniProt P37173)
[2] = biological target: T1, HPK1 (Homo sapiens, UniProt Q92918)
T1 construct: gene MAP4K1

[3] = biological target: CSF1R-autoinhibited (Homo sapiens, UniProt P07333)
[4] = biological target: MAP3K2 (Homo sapiens, UniProt Q9Y2U5)
MAP3K2, sequence (Q9Y2U5 whole entry): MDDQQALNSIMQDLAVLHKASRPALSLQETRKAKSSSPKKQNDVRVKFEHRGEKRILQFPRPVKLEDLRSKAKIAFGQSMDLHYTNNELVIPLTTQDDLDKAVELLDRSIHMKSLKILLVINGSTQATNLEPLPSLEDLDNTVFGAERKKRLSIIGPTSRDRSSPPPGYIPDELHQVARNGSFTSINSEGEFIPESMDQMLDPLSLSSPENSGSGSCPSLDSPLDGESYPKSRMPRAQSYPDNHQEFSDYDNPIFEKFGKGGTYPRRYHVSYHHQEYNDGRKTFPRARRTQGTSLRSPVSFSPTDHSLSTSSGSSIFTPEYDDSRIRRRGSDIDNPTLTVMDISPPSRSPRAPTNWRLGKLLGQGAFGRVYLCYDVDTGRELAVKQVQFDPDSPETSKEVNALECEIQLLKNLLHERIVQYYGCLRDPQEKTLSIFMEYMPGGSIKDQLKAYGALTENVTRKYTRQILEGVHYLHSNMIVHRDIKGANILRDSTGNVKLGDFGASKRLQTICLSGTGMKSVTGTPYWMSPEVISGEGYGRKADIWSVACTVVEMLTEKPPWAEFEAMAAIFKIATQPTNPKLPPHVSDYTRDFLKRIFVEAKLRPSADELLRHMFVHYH

[5] = biological target: PIK3CG (Homo sapiens, UniProt P48736)
PIK3CG, sequence (P48736 whole entry): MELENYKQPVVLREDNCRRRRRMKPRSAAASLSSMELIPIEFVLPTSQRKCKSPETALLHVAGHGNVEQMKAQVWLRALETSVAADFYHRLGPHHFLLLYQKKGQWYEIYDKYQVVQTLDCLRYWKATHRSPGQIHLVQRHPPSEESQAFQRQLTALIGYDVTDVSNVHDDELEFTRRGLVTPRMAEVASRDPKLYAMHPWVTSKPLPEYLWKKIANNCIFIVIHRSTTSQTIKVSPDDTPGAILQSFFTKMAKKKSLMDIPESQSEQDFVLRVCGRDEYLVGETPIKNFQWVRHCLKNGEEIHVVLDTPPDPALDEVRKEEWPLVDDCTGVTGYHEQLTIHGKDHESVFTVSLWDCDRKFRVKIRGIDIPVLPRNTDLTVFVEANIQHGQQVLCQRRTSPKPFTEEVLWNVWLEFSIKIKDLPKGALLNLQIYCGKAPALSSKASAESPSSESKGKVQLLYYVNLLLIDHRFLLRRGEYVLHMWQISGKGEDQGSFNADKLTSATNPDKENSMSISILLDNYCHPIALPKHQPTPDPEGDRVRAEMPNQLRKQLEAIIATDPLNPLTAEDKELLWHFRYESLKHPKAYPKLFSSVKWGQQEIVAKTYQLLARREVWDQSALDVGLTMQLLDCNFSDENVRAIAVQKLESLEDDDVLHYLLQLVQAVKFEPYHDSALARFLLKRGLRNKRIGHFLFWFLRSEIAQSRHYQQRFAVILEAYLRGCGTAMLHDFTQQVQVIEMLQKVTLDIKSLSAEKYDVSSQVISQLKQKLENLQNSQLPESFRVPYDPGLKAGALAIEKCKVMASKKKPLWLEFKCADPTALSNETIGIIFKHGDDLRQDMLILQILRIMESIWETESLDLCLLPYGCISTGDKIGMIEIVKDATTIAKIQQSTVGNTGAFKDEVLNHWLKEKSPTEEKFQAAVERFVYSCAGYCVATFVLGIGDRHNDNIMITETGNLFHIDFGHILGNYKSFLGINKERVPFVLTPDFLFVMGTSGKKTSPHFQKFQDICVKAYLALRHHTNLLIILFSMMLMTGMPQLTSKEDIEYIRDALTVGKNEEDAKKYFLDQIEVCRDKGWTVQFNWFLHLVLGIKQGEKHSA

[6] = biological target: PKN1 (Homo sapiens, UniProt Q16512)
[7] = biological target: T2, PKAC-beta (Homo sapiens, UniProt P22694)
T2 construct: gene PRKACB

[8] = biological target: T3, p38-delta (Homo sapiens, UniProt O15264)
T3 construct: gene MAPK13

[9] = biological target: JAK1(JH1domain-catalytic) (Homo sapiens, UniProt P23458)
[10] = biological target: HCK (Homo sapiens, UniProt P08631)
HCK, sequence (P08631 whole entry): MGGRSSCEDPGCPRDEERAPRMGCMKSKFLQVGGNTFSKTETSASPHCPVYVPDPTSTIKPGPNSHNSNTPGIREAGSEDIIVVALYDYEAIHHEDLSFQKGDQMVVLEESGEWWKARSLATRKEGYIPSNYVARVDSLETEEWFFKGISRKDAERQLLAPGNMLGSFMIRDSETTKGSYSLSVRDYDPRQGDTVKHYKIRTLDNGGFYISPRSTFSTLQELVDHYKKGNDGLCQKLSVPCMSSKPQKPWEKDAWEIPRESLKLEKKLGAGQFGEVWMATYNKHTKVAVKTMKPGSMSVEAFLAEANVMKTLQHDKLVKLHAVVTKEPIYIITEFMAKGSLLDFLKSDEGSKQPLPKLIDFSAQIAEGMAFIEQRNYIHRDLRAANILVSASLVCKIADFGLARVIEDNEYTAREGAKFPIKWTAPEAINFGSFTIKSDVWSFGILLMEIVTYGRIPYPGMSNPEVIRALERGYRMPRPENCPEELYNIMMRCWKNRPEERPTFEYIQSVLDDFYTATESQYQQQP

[11] = biological target: CSF1R (Homo sapiens, UniProt P07333)
[12] = biological target: T4, ARK5 (Homo sapiens, UniProt O60285)
T4 construct: gene NUAK1
T4 sequence (O60285 whole entry): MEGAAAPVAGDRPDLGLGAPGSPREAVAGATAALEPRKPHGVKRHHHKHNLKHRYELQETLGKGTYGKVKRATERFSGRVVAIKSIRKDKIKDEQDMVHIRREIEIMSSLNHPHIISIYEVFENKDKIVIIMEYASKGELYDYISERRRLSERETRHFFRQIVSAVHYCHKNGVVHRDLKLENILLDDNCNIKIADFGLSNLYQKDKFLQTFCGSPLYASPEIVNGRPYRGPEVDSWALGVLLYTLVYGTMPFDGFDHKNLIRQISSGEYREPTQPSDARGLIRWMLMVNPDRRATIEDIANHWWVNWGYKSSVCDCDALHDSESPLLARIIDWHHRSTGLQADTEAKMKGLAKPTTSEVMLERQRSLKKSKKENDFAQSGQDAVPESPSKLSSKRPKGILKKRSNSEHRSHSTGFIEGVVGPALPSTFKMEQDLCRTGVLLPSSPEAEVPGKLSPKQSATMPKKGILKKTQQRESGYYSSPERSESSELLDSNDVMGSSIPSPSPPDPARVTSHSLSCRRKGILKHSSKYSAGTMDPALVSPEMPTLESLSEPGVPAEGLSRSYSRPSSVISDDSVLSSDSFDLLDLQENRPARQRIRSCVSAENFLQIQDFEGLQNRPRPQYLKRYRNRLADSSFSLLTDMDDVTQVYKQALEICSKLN

[13] = biological target: MAPKAPK2 (Homo sapiens, UniProt P49137)
[14] = biological target: FRK (Homo sapiens, UniProt P42685)
[15] = biological target: PDPK1 (Homo sapiens, UniProt O15530)
[16] = biological target: T5, NIM1 (Homo sapiens, UniProt Q8IY84)
T5 construct: gene NIM1K
T5 sequence (Q8IY84 whole entry): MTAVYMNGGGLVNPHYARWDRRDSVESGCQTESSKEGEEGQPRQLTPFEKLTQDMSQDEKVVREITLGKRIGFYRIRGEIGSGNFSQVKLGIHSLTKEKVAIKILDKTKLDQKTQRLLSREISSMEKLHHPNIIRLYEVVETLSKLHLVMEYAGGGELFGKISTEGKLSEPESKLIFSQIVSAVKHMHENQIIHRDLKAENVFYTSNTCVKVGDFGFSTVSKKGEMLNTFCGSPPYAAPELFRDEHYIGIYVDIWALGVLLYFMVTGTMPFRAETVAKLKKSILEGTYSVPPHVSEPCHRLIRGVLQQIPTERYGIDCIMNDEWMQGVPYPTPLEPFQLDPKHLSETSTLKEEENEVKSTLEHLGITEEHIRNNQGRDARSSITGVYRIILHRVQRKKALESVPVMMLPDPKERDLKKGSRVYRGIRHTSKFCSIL

[17] = biological target: KIT(D816H) (Homo sapiens, UniProt P10721, D816H)
[18] = biological target: PRKCI (Homo sapiens, UniProt P41743)
[19] = biological target: T6, ASK1 (Homo sapiens, UniProt Q99683)
T6 construct: gene MAP3K5
T6 sequence (Q99683 whole entry): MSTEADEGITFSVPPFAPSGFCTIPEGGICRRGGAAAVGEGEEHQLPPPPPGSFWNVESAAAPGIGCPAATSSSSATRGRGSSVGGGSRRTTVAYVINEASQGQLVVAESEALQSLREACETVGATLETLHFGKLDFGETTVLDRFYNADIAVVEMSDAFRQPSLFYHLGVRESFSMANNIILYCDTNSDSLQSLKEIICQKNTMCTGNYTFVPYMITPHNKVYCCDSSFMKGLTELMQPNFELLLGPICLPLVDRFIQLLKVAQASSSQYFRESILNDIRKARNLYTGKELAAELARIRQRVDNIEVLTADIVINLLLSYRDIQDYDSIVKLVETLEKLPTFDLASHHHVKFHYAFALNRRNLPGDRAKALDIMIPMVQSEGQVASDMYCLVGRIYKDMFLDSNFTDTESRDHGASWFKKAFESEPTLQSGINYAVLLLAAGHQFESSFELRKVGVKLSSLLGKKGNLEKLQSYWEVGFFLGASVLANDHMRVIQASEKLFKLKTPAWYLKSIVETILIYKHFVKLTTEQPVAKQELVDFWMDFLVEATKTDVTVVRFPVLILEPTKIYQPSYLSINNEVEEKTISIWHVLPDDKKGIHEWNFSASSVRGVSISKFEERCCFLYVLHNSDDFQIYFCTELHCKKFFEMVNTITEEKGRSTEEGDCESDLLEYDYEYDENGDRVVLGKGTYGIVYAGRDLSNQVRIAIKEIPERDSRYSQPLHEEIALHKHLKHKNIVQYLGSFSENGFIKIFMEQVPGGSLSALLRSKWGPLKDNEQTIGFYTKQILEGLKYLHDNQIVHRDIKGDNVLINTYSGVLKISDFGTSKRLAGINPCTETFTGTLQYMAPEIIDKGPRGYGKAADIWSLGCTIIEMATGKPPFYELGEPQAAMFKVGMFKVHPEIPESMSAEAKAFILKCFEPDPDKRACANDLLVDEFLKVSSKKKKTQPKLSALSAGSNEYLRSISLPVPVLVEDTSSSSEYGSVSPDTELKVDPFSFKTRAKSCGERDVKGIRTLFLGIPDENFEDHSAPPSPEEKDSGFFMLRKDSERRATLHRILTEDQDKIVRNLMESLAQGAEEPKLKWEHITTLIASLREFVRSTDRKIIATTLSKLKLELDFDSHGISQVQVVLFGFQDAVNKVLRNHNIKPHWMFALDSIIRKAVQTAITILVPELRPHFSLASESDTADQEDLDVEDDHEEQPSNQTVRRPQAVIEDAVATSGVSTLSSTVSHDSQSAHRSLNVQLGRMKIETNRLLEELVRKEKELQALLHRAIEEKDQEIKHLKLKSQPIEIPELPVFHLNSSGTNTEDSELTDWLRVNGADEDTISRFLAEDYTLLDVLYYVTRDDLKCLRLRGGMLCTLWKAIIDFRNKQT

[20] = biological target: T7, RSK2(Kin.Dom.1-N-terminal) (Homo sapiens, UniProt P51812)
T7 construct: gene RPS6KA3

[21] = biological target: AURKC (Homo sapiens, UniProt Q9UQB9)
AURKC, sequence (Q9UQB9 whole entry): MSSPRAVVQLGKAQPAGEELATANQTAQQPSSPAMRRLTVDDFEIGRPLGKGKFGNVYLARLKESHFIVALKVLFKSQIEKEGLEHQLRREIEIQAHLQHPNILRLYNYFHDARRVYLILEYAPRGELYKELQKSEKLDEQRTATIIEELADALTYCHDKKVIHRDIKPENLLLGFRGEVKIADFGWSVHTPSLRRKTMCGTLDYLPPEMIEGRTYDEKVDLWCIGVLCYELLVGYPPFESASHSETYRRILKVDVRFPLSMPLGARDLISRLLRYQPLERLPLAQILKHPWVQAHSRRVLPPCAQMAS

[22] = biological target: TNK1 (Homo sapiens, UniProt Q13470)
[23] = biological target: TGFBR1 (Homo sapiens, UniProt P36897)
[24] = biological target: T8, DMPK2 (Homo sapiens, UniProt Q6DT37)
T8 construct: gene CDC42BPG

[25] = biological target: MAP4K3 (Homo sapiens, UniProt Q8IVH8)
[26] = biological target: T9, IKK-alpha (Homo sapiens, UniProt O15111)
T9 construct: gene CHUK

[27] = biological target: BMPR1A (Homo sapiens, UniProt P36894)
[28] = biological target: T10, AMPK-alpha1 (Homo sapiens, UniProt Q13131)
T10 construct: gene PRKAA1

[29] = biological target: SRMS (Homo sapiens, UniProt Q9H3Y6)
[30] = biological target: EPHA5 (Homo sapiens, UniProt P54756)
[31] = biological target: T11, DCAMKL1 (Homo sapiens, UniProt O15075)
T11 construct: gene DCLK1

[32] = biological target: PIK3CA(H1047L) (Homo sapiens, UniProt P42336, H1047L)
[33] = biological target: TNIK (Homo sapiens, UniProt Q9UKE5)
[34] = biological target: T12, DRAK2 (Homo sapiens, UniProt O94768)
T12 construct: gene STK17B

[35] = biological target: BRAF(V600E) (Homo sapiens, UniProt P15056, V600E)

- remaining activity at 1 µM [1]: 94%
- remaining activity at 1 µM [2]: 100%
- remaining activity at 1 µM [3]: 93%
- remaining activity at 1 µM [4]: 92%
- remaining activity at 1 µM [5]: 100%
- remaining activity at 1 µM [6]: 100%
- remaining activity at 1 µM [7]: 97%
- remaining activity at 1 µM [8]: 70%
- remaining activity at 1 µM [9]: 100%
- remaining activity at 1 µM [10]: 86%
- remaining activity at 1 µM [11]: 96%
- remaining activity at 1 µM [12]: 82%
- remaining activity at 1 µM [13]: 100%
- remaining activity at 1 µM [14]: 63%
- remaining activity at 1 µM [15]: 84%
- remaining activity at 1 µM [16]: 100%
- remaining activity at 1 µM [17]: 100%
- remaining activity at 1 µM [18]: 72%
- remaining activity at 1 µM [19]: 92%
- remaining activity at 1 µM [20]: 100%
- remaining activity at 1 µM [21]: 100%
- remaining activity at 1 µM [22]: 79%
- remaining activity at 1 µM [23]: 96%
- remaining activity at 1 µM [24]: 100%
- remaining activity at 1 µM [25]: 96%
- remaining activity at 1 µM [26]: 100%
- remaining activity at 1 µM [27]: 93%
- remaining activity at 1 µM [28]: 83%
- remaining activity at 1 µM [29]: 100%
- remaining activity at 1 µM [30]: 74%
- remaining activity at 1 µM [31]: 100%
- remaining activity at 1 µM [32]: 100%
- remaining activity at 1 µM [33]: 86%
- remaining activity at 1 µM [34]: 97%
- remaining activity at 1 µM [35]: 100%
SMILES: Cc1cn(-c2cc(NC(=O)c3ccc4c(c3)CN(c3cncnc3)C[C@@H]4C)cc(C(F)(F)F)c2)cn1 [Compound 6j]
